Earlier results on one compound are cited in patent US6362169B1 (priority 1998, dated 2002).

The series has as its system Helicobacter pylori. Particulars: combination use with a proton pump inhibitor or a bismuth preparation (WO 97/02039).

`CO[C@H]1/C=C/O[C@@]2(C)Oc3c(C)c(O)c4c(c3C2=O)C2=NC3(CCN(CC(C)C)CC3)NC2=C(NC(=O)/C(C)=C\C=C\[C@H](C)[C@H](O)[C@@H](C)[C@@H](O)[C@@H](C)[C@H](OC(C)=O)[C@@H]1C)C4=O` [Rifabutin, rifabutin]: the “effect on minimum inhibitory concentration by combination use” value is on record as “synergistic effect”.
